The text below walks through data of patent US11485736B2 (KSQ Therapeutics, Inc., priority 2018, dated 2022).

Read-outs that look alike come from different tables or passages of the source.

Data set [1] is described as follows: ADME solubility determination at pH 2.0 and pH 7.4. It counts as physicochemical. The settings on record: aqueous buffer, thermodynamic from solid, LC-MS/MS. Here is the method: Certain Compounds of the Disclosure were assessed for ADME solubility at pH 2.0 and pH 7.4.
Stock solutions were prepared by adding each compound to DMSO at a concentration of 10 mM. Samples were prepared by adding 50 μL of each stock solution to separate vials. The vials were loaded onto a 96-well rack and dried. 500 μL of Phosphate Buffered Saline (PBS) pH 7.4 or PBS pH 2.0 were added into each vial. The vials were then shaken at 25° C. and 1,100 rpm for 24 hours.
After 24 hours, the vials were centrifuged at 3220 G and 25° C. for 30 minutes. The supernatant fluid was analyzed by LC-MS/MS against a standard of known concentration. The solubility of each sample was then calculated using the equation below:
[formula] where DF is the dilution factor.

Data set [2] in a line: Liver microsomal stability, rat liver microsomes. The settings on record: 1 μM compound, NADPH, read-out: t1/2 (min) in RLM. It counts as in vitro ADME. As to the method: (§1) Certain Compounds of the Disclosure were assessed for ADME metabolic stability in human liver microsomes (HLM) and rat liver microsomes (RLM).
(§2) Samples were prepared by adding 222.5 μL of a master solution (100 mM phosphate buffer and 1 mg/mL liver microsomes (HLM or RLM)) and 25 μL of a 10 mM NADPH solution to incubation plates, which were then warmed for 10 min. Each compound was separately dissolved in DMSO to prepare 10 mM stock solutions, which were then diluted to 100 μM with acetonitrile. A reaction was started by adding 2.5 μL of the 100 μM solution of each compound to separate incubation plates such that the final concentration of for each compound in each plate was 1 μM.
(§3) 25 μL aliquots of each sample were taken at 0.5, 5, 10, 15, 20 and 30 minutes, and the reaction was stopped by adding 5 volumes of cold acetonitrile with IS (100 nM alprazolam, 200 nM caffeine and 100 nM tolbutamide). The samples were then centrifuged at 3,220 G for 30 minutes, and 100 μL of the supernatant fluid was mixed with 100 μL of ultra-pure H2O.
(§4) The samples were then analyzed by LC-MS/MS. Peak areas were determined from extracted ion chromatograms. Slope values (k) were determined by linear regression of the natural logarithm of the remaining percentage of the compound vs. incubation time curve. […] The in vitro half-life (min) was converted into the in vitro intrinsic clearance (in vitro CLint, in μL/min/mg protein) using the following equation: […]

A short description of data set [3]: Liver microsomal stability, human liver microsomes. It counts as in vitro ADME. The conditions noted are these: 1 μM compound, NADPH, read-out: t1/2 (min) in HLM. As to the method: as §1, §2, §3, §4
Setting [4] is: PBS pH 2.0, shaken at 25° C. for 24 hours, read-out: Solubility at pH 2.0.
Where [5] appears, read: PBS pH 7.4, shaken at 25° C. for 24 hours, read-out: Solubility at pH 7.4.

In the case of `COc1ncnc(C2CC2)c1-c1ncc2cnn([C@@H](C)c3ccc(-c4nc(C(F)(F)F)cn4C)cc3)c2n1` (single isomer, unassigned) [Example 92], the solubility at 24 h in data set [1] (setting [4]) and in data set [1] (setting [5]) was > 10 µM in each case. The half-life at 1 μM in data set [2] is > 25 min; in data set [3], < 25 min.

For `COc1ncnc(C2CC2)c1-c1ncc2cnn([C@H](C)c3ccc(-c4nc(C(F)(F)F)cn4C)cc3)c2n1` (single isomer, unassigned) [Example 93], the solubility at 24 h in data set [1] (setting [4]) and in data set [1] (setting [5]) was > 10 µM in each case. In addition, the half-life at 1 μM in data set [2] and in data set [3] was < 25 min throughout.

Regarding `CCn1cc(C(F)(F)F)nc1-c1ccc([C@H](C)n2ncc3cnc(-c4c(OC)ncnc4C4CC4)nc32)cc1` (single isomer, unassigned) [Example 94], the solubility at 24 h in data set [1] (setting [4]) is > 10 µM; in data set [1] (setting [5]), < 10 µM. The half-life at 1 μM is < 25 min in data set [2] and > 25 min in data set [3].

Regarding `CCn1cc(C(F)(F)F)nc1-c1ccc([C@@H](C)n2ncc3cnc(-c4c(OC)ncnc4C4CC4)nc32)cc1` (single isomer, unassigned) [Example 95], the figures for the solubility at 24 h in data set [1] (setting [4]) and in data set [1] (setting [5]) were > 10 µM and < 10 µM, respectively. For the same compound, the figures for the half-life at 1 μM in data set [2] and in data set [3] were < 25 min and > 25 min, respectively.

`CCn1cc(C(F)(F)F)nc1-c1ccc([C@H](C)n2ncc3cnc(-c4c(OC)ncnc4C4CCC4)nc32)cc1` (single isomer, unassigned) [Example 99]: the solubility at 24 h in data set [1] (setting [4]) was > 10 µM; in data set [1] (setting [5]), < 10 µM. The half-life at 1 μM in data set [2] and in data set [3] was < 25 min throughout.

Take `CCn1cc(C(F)(F)F)nc1-c1ccc([C@@H](C)n2ncc3cnc(-c4c(OC)ncnc4C4CCC4)nc32)cc1` (single isomer, unassigned) [Example 100]: the solubility at 24 h was > 10 µM in data set [1] (setting [4]) and < 10 µM in data set [1] (setting [5]). Besides, the half-life at 1 μM in data set [2] and in data set [3] was < 25 min throughout.

Take `CC(C)c1ccccc1-c1ncc2cnn(Cc3ccc(-c4nc(C(F)(F)F)cn4C)cc3)c2n1` [Example 1, 6-(2-isopropylphenyl)-1-(4-(1-methyl-4-(trifluoromethyl)-1H-imidazol-2-yl)benzyl)-1H-pyrazolo[3,4-d]pyrimidine]: the solubility at 24 h in data set [1] (setting [4]) and in data set [1] (setting [5]) was < 10 µM throughout. Also, the half-life at 1 μM in data set [2] and in data set [3] was < 25 min in each case.

Consider `COc1ccccc1-c1ncc2cnn(Cc3ccc(-c4nc(C(F)(F)F)cn4C)cc3)c2n1` [Example 2, 6-(2-methoxyphenyl)-1-(4-(1-methyl-4-(trifluoromethyl)-1H-imidazol-2-yl)benzyl)-1H-pyrazolo[3,4-d]pyrimidine], for which the solubility at 24 h is > 10 µM in data set [1] (setting [4]) and < 10 µM in data set [1] (setting [5]). The half-life at 1 μM in data set [2] and in data set [3] was < 25 min in each case.

For `Cn1cc(C(F)(F)F)nc1-c1ccc(Cn2ncc3cnc(-c4ccccc4S(C)(=O)=O)nc32)cc1` [Example 3, 1-(4-(1-methyl-4-(trifluoromethyl)-1H-imidazol-2-yl)benzyl)-6-(2-(methylsulfonyl)-phenyl)-1H-pyrazolo[3,4-d]pyrimidine], the results for the solubility at 24 h in data set [1] (setting [4]) and in data set [1] (setting [5]) were > 10 µM and < 10 µM, respectively. The half-life at 1 μM in data set [2] and in data set [3] was > 25 min each time.

Turning to `COc1cccc(OC)c1-c1ncc2cnn(Cc3ccc(-c4nc(C(F)(F)F)cn4C)cc3)c2n1` [Example 4, 6-(2,6-dimethoxyphenyl)-1-(4-(1-methyl-4-(trifluoromethyl)-1H-imidazol-2-yl)benzyl)-1H-pyrazolo[3,4-d]pyrimidine], the values for the solubility at 24 h in data set [1] (setting [4]) and in data set [1] (setting [5]) were > 10 µM and < 10 µM, respectively. In addition, the half-life at 1 μM in data set [2] and in data set [3] was < 25 min in each case.

For `COc1cccc(C)c1-c1ncc2cnn(Cc3ccc(-c4nc(C(F)(F)F)cn4C)cc3)c2n1` [Example 5, 6-(2-methoxy-6-methylphenyl)-1-(4-(1-methyl-4-(trifluoromethyl)-1H-imidazol-2-yl)benzyl)-1H-pyrazolo[3,4-d]pyrimidine], the solubility at 24 h in data set [1] (setting [4]) was > 10 µM; in data set [1] (setting [5]), < 10 µM. Moreover, the half-life at 1 μM in data set [2] and in data set [3] was < 25 min throughout.

`COc1nccc(C)c1-c1ncc2cnn(Cc3ccc(-c4nc(C(F)(F)F)cn4C)cc3)c2n1` [Example 6, 6-(2-methoxy-4-methylpyridin-3-yl)-1-(4-(1-methyl-4-(trifluoromethyl)-1H-imidazol-2-yl)benzyl)-1H-pyrazolo[3,4-d]pyrimidine]: the solubility at 24 h is > 10 µM in data set [1] (setting [4]) and < 10 µM in data set [1] (setting [5]). Further, the half-life at 1 μM in data set [2] and in data set [3] was < 25 min in each case.

As to `CCS(=O)(=O)c1ccccc1-c1ncc2cnn(Cc3ccc(-c4nc(C(F)(F)F)cn4C)cc3)c2n1` [Example 7, 6-(2-(ethylsulfonyl)phenyl)-1-(4-(1-methyl-4-(trifluoromethyl)-1H-imidazol-2-yl)benzyl)-1H-pyrazolo[3,4-d]pyrimidine], the solubility at 24 h in data set [1] (setting [4]) and in data set [1] (setting [5]) was < 10 µM in each case. For the same compound, the half-life at 1 μM in data set [2] is < 25 min; in data set [3], > 25 min.

For `CC(C)c1ncccc1-c1ncc2cnn(Cc3ccc(-c4nc(C(F)(F)F)cn4C)cc3)c2n1` [Example 9, 6-(2-isopropylpyridin-3-yl)-1-(4-(1-methyl-4-(trifluoromethyl)-1H-imidazol-2-yl)benzyl)-1H-pyrazolo[3,4-d]pyrimidine], the solubility at 24 h in data set [1] (setting [4]) and in data set [1] (setting [5]) was > 10 µM throughout. Also, the half-life at 1 μM in data set [2] and in data set [3] was < 25 min each time.

Consider `CC(C)c1c(F)cccc1-c1ncc2cnn(Cc3ccc(-c4nc(C(F)(F)F)cn4C)cc3)c2n1` [Example 10, 6-(3-fluoro-2-isopropylphenyl)-1-(4-(1-methyl-4-(trifluoromethyl)-1H-imidazol-2-yl)benzyl)-1H-pyrazolo[3,4-d]pyrimidine], for which the solubility at 24 h in data set [1] (setting [4]) and in data set [1] (setting [5]) was < 10 µM each time. For the same compound, the half-life at 1 μM in data set [2] and in data set [3] was < 25 min throughout.

In the case of `COc1cccc(C2CC2)c1-c1ncc2cnn(Cc3ccc(-c4nc(C(F)(F)F)cn4C)cc3)c2n1` [Example 11, 6-(2-cyclopropyl-6-methoxyphenyl)-1-(4-(1-methyl-4-(trifluoromethyl)-1H-imidazol-2-yl)benzyl)-1H-pyrazolo[3,4-d]pyrimidine], the solubility at 24 h in data set [1] (setting [4]) and in data set [1] (setting [5]) was > 10 µM in each case. For the same compound, the half-life at 1 μM in data set [2] and in data set [3] was < 25 min each time.

Regarding `COc1ncnc(C2CC2)c1-c1ncc2cnn(Cc3ccc(-c4nc(C(F)(F)F)cn4C)cc3)c2n1` [Example 12, 6-(4-cyclopropyl-6-methoxypyrimidin-5-yl)-1-(4-(1-methyl-4-(trifluoromethyl)-1H-imidazol-2-yl)benzyl)-1H-pyrazolo[3,4-d]pyrimidine], the solubility at 24 h in data set [1] (setting [4]) and in data set [1] (setting [5]) was > 10 µM in each case. Moreover, the half-life at 1 μM in data set [2] is > 25 min; in data set [3], < 25 min.

Take `COc1ncnc(C2CC2)c1-c1ncc2cnn(Cc3ccc(-c4cn(C)c(C(F)(F)F)n4)cc3)c2n1` [Example 13]: the solubility at 24 h in data set [1] (setting [4]) and in data set [1] (setting [5]) was < 10 µM each time. The half-life at 1 μM in data set [2] and in data set [3] was > 25 min each time.

As to `COc1ncnc(C2CCC2)c1-c1ncc2cnn(Cc3ccc(-c4nc(C(F)(F)F)cn4C)cc3)c2n1` [Example 15], the solubility at 24 h in data set [1] (setting [4]) and in data set [1] (setting [5]) was > 10 µM throughout. The half-life at 1 μM in data set [2] and in data set [3] was < 25 min in each case.

With `COc1ncnc(C2CCC2)c1-c1ncc2cnn(Cc3ccc(-c4nc(C(F)(F)F)cn4C(C)C)cc3)c2n1` [Example 16], the solubility at 24 h in data set [1] (setting [4]) is > 10 µM; in data set [1] (setting [5]), < 10 µM. Besides, the half-life at 1 μM in data set [2] and in data set [3] was < 25 min in each case.

With `COc1ncnc(C2CC2)c1-c1ncc2cnn(Cc3ccc(-c4csc(C(F)(F)F)n4)cc3)c2n1` [Example 126], the solubility at 24 h in data set [1] (setting [4]) and in data set [1] (setting [5]) was < 10 µM in each case.
